How the values were obtained:
[1] = tested on: arteria pulmonalis; assay: Isometric contraction force of isolated arteria pulmonalis rings precontracted by KCl; format: cell-based, guinea pigs; conditions: Cavia porcellus; arteria pulmonalis rings precontracted by 90 mmol/l KCl
Protocol: (§1) The COS-releasing compounds according to the present invention were tested on isolated muscle-preparations of the aorta, arteria pulmonalis, terminal ileum, papillary muscle and the right atrium (derived from guinea pigs) for their vasodilatory effect.
(§2) Guinea pigs of both sexes (340-480 g) were killed with a blow on the neck. After excision of the heart, the aorta and the ileum were dissected. The aorta was cleaned of loosely adhering fat and connective tissue and cut into rings of 2 mm width. The terminal portion of the ileum was removed and the 10 cm nearest to the caecum were discarded. The intestine was placed in a nutrient solution. The intestine was cleaned by flushing with nutrient solution and cut into pieces of 2 to 3 cm length. The arteria pulmonalis was dissected close to the heart, cleaned and cut into rings of 2 mm width. Papillary muscles were dissected from the right ventricle for contractility measurements. Purkinje fibres were carefully removed to prevent spontaneous activity. Only muscles with a diameter of less than 0.87 mm were used in order to have a sufficient oxygen supply. Chronotropic activity was tested on guinea-pig isolated right atria.
(§3) After isolation the preparations (aortic rings, terminal ilea, arteria pulmonalis rings, papillary muscles and right atria) were stored at room temperature in gassed (95% O2-5% CO2) Krebs-Henseleit solution with the following composition (in mmol/l): NaCl 114.9, KCl 4.73, CaCl2 3.2, MgSO4 1.18, NaHCO3, 24.9, KH2PO4 1.18, glucose 10; pH 7.2-7.4.
(§4) Isometric contraction force of electrically stimulated papillary muscles (1 Hz), terminal ilea precontracted by 60 mmol/l KCl, aortic and arteria pulmonalis rings precontracted by 90 mmol/l KCl as well as spontaneous activity of right atria was measured by the method described by Reiter (Reiter, M. Bioassay of inotropic agents on the isolated papillary muscle. Arzneim. Forsch. 1967, 17, 1249-1253).
(§5) The preparations were placed in a continuously oxygenated (95% O2 and 5% CO2) bath of 35 ml nutrient solution to guarantee sufficient oxygen supply and appropriate pH as well as circulation of nutrient solution with and without test compound. The experiments were performed at a temperature of 37±1° C. The smooth and heart muscle preparations were connected with one end to a tissue holder and the other to a force transducer (Transbridge™, 4-Channel Transducer Amplifier, World Precision Instruments, Sarasota, Fla., USA). Papillary muscles were electrically driven with an Anapulse Stimulator Model 301-T and an Isolation Unit Model 305-1 (WPI, Hamden, Conn., USA) at a frequency of 1 Hz and a pulse duration of 3 ms. Amplitude of stimulation pulse was adjusted 10% above threshold level. Resting tension of either 3.92 mN (papillary muscles), 10.37 mN (right atria) or 19.6 mN (aortic and arteria pulmonalis rings) was kept constant throughout the experiments.
(§6) Signals were recorded with a chart recorder (BD 112 Dual Channel, Kipp & Zonen) and evaluated. For statistical analyses the arithmetic means and standard error of the mean (SEM) of n experiments were calculated. Statistical significance of the results was evaluated by the Student's t-test for paired observations. EC50-values were graphically determined from the concentration response curves.
(§7) Stock solutions of the compounds were dissolved in distilled water every day and were further diluted with modified Krebs-Henseleit solution to the required concentrations (1, 3, 10, 30 and 100 μmol/l).

[2] = tested on: aorta; assay: Isometric contraction force of isolated aortic rings precontracted by KCl; format: cell-based, guinea pigs; conditions: for EC50: Cavia porcellus, aortic rings precontracted by 90 mmol/l KCl, Krebs-Henseleit solution, 37°C
Protocol: as §1, §2, §3, §4, §5, §6, §7

[3] = tested on: terminal ileum; assay: Isometric contraction force of isolated terminal ilea precontracted by KCl; format: cell-based, guinea pigs; conditions: Cavia porcellus; terminal ilea precontracted by 60 mmol/l KCl
Protocol: as §1, §2, §3, §4, §5, §6, §7

[4] = tested on: right atrium; assay: Spontaneous (chronotropic) activity of isolated right atria; format: cell-based, guinea pigs; conditions: Cavia porcellus
Protocol: as §1, §2, §3, §4, §5, §6, §7

[5] = tested on: papillary muscle; assay: Isometric contraction force of electrically stimulated papillary muscles; format: cell-based, guinea pigs; conditions: Cavia porcellus; electrically stimulated (1 Hz)
Protocol: as §1, §2, §3, §4, §5, §6, §7

[6] = tested on: smooth muscle preparations; assay: Vasodilatory activity on smooth muscle preparations (preparation not specified); format: cell-based, guinea pigs; conditions: for vasodilatory activity on smooth muscle preparations: setup of 4.3, aqueous solution; for EC50: Cavia porcellus, setup of 4.3, preparation not specified, read-out: EC50 vasodilatory activity (negative controls)
Protocol: as §1, §2, §3, §4, §5, §6, §7
Compounds CRC59, CRC59HCl, CRC60 and CRC60HCl as indicated in the table below were used as negative controls in the present experimental setup. Due to the exchange of sulfur against oxygen, said compounds are not able to release COS.

[7] = tested on: isolated mouse heart; assay: Isolated mouse heart, Langendorff perfusion; format: cell-based, female OF-1 mice
Protocol: Hearts from female OF-1 mice were excised, cannulated and perfused retrogradely, according to the Langendorff technique, with modified oxygenated Krebs-Henseleit-buffer at constant pressure. After 15 min of baseline perfusion, CRC1HCl (10 μM) was administered into the coronary perfusion system for 10 min. Coronary flow (CF), heart rate (HR), aortic pressure (AoP), concentrations of K^+, Na^+, Ca^2+ and the pH-value were monitored throughout the whole experiment (CRC1HCl-group, n=8; control group, n=8).
In a second set of experiments in the setup as described above, nitro-L-arginine (L-NA) (n=6) and PNU-37883A (n=4) were evaluated as potential inhibitors of CRC1HCl (10 μM) activity. The compounds were added to final concentrations of 100 μM (L-NA) and 10 μM (PNU-37883A).
Also, the myocardial consumption of lactate and glucose was monitored in both the control-group and the CRC1HCl-group.

[8] = tested on: aortic rings; assay: Contraction force of aortic rings in blood plasma; format: cell-based, guinea pigs; conditions: 100 μM, guinea pig blood plasma, KCl 90 mM, after 60 minutes
Protocol: Guinea pigs of both sexes (340-480 g) were killed with a blow on the neck. The thorax was opened immediately and heparinized blood was collected. After centrifugation of the blood, the blood plasma was obtained which was used in the further experiments. Further, the aorta of the guinea pigs was excised and prepared as described in 4.3. Thus, the aortic rings were present at room temperature in Krebs-Henseleit solution and put under a resting tension. The contraction force was determined as described under 4.3. A stock solution of CRC80HCl in distilled water was prepared. CRC80HCl was used in a final concentration of 100 μM in the experiments.
In a second experiment, the Krebs-Henseleit solution was exchanged with blood plasma of the guinea pigs gained as described above prior to the addition of CRC80HCl. Thus, the Krebs-Henseleit solution was exchanged by 6 ml blood plasma and KCl was added 15 minutes later to a final concentration of 90 mM. Once a steady state was reached, CRC80HCl was added to a final concentration of 100 μM and the contraction force was recorded over a period of 60 minutes. After the period of 60 minutes, a decrease of the contraction force of 39% was observed.

[9] = Stability in aqueous solution (concluded from inactivity in aqueous setup); format: physicochemical; conditions: conditions of 4.3
Text: Some of the COS releasing compounds according to formula (I) may, however, release COS in a spontaneous hydrolysis reaction due to the presence of H2O in aqueous solutions, suspensions, and the like. Said compounds may also be referred to as being “instable compounds” in aqueous solutions. The determination of the stability of COS releasing compounds according to the present invention may easily be determined, e.g. by dissolving a compound to be tested in an aqueous solution and determining the amount of COS released over time.

[10] = 10 μM, vs control, data not shown

Row | EC50 [1] | EC50 [2] | EC50 [3] | EC50 [4] | EC50 [5] | SMILES | further results
1 | 7.9 µM | 2.98 µM | 15.3 µM | 26.5 µM | > 100 µM | COc1cc(CSC(=S)n2ccnc2)cc(OC)c1OC [CRC33] | melting point: 110 to 113 °C
2 | 24 µM | 12.8 µM | 100 µM | > 100 µM | > 100 µM | COc1ccc(CSC(=S)n2ccnc2)cc1 [CRC10HCl] | 
3 | 10.5 µM | 3.36 µM | 17.2 µM | 15.3 µM | > 100 µM | Cc1nccn1C(=S)SCc1ccccc1 [CRC9HCl] | 
4 |  |  |  |  |  | O=C(OC1CCCCC1)n1ccnc1 [CRC59] | vasodilatory activity on smooth muscle preparations [6]: did not show vasodilatory activity
5 | 6.9 µM | 7.8 µM | 5.7 µM | > 100 µM | 78 µM | CSC(=S)n1ccnc1.Cl [CRC1HCl] | aortic pressure (AoP) ([7]; 10 μM for 10 min, vs control): not significantly affected or altered; concentration of Ca2+ in coronary effusate ([7]; 10 μM for 10 min, vs control): not significantly affected or altered; concentration of K+ in coronary effusate ([7]; 10 μM for 10 min, vs control): not significantly affected or altered; concentration of Na+ in coronary effusate ([7]; 10 μM for 10 min, vs control): not significantly affected or altered; heart rate (HR) ([7]; 10 μM for 10 min, vs control): not significantly affected or altered; pH-value of coronary effusate ([7]; 10 μM for 10 min, vs control): not significantly affected or altered; coronary flow (CF) ([7]; 10 μM for 10 min, during and 30 minutes after administration, vs control, p<0.05): significantly increased; myocardial consumption of glucose [7, 10]: not significantly affected or altered; myocardial consumption of lactate [7, 10]: not significantly affected or altered; effect of inhibition of ATP-sensitive potassium-channels on the vasodilatory effect ([7]; CRC1HCl 10 μM with PNU-37883A 10 μM, data not shown): had no effect; effect of inhibition of nitric oxide synthase on the vasodilatory effect ([7]; CRC1HCl 10 μM with nitro-L-arginine 100 μM, data not shown): had no effect
6 |  |  |  |  |  | COc1ccc2ncn(C(=S)SC)c2c1 [CRC6] | melting point: 64 to 87 °C
7 | 24 µM | 5.75 µM | 100 µM | > 100 µM | 77 µM | CC(=O)OCCSC(=S)n1ccnc1 [CRC13HCl] | 
8 |  |  |  |  |  | CC(C)OC(=O)n1ccnc1.Cl [CRC60HCl] | EC50 [6]: > 100 µM; vasodilatory activity on smooth muscle preparations [6]: did not show vasodilatory activity
9 |  |  |  |  |  | CCOC(=S)OCCCN(C)C.Cl [CRC80HCl] | vasodilatory activity on the aortic ring in Krebs-Henseleit solution ([2]; 100 μM, period of 45 minutes): did not show a vasodilatory activity; decrease of the contraction force [8]: 39%
10 | 11.2 µM | 6.3 µM | 9.5 µM | > 100 µM | > 100 µM | CSC(=S)n1ccnc1C [CRC5HCl] | 
11 | 19.8 µM | 16 µM | 32.1 µM | > 100 µM | > 100 µM | CCOC(=O)CCSC(=S)n1ccnc1 [CRC11HCl] | 
12 |  |  |  |  |  | CN(C)CCOC(=S)OCCN(C)C.Cl.Cl [CRC72HCl] | stability in aqueous solutions [9]: stable in aqueous solutions; vasodilatory activity on smooth muscle preparations [6]: inactive
13 |  |  |  |  |  | CC(C)OC(=O)n1ccnc1 [CRC60] | vasodilatory activity on smooth muscle preparations [6]: did not show vasodilatory activity
14 | 25.1 µM | 22.8 µM | 25.6 µM | 56 µM | > 100 µM | CSC(=S)n1c(C)nc2ccccc21 [CRC4HCl] | 
15 |  |  |  |  |  | S=C(N1CCN(C(=S)n2ccnc2)CC1)n1ccnc1 [CRC66] | melting point: 225 to 226 °C
16 |  |  |  |  |  | Cl.O=C(OC1CCCCC1)n1ccnc1 [CRC59HCl] | EC50 [6]: > 100 µM; vasodilatory activity on smooth muscle preparations [6]: did not show vasodilatory activity
17 | 63 µM | 20.1 µM | 15.3 µM | > 100 µM | 26 µM | S=C(SCc1ccccc1)n1ccnc1 [CRC8HCl] | 

Row | SMILES | EC50 [1] | EC50 [2] | EC50 [3] | EC50 [4] | EC50 [5] | further results
18 | S [H2S, hydrogen sulfide, reference compound] |  | 107 µM |  |  |  | 
